ChEMBL document CHEMBL3792312, “Synthesis and docking studies of pyrazine-thiazolidinone hybrid scaffold targeting dormant tuberculosis” (Bioorg Med Chem Lett, 2016)
≈ marks a conversion by molar mass, not a printed value.

Assays:
[1] = system: Mycobacterium tuberculosis; experiment: Antitubercular activity against dormant Mycobacterium tuberculosis H37Ra after 12 days by XTT-Menadione assay; type: functional, organism-based; conditions: 288 h
[2] = Cytotoxicity against human THP1 cells after 5 days by MTT assay; type: cell-based, THP-1; conditions: for IC50: Homo sapiens, THP-1, 120 h; for MCC at 120 h: human, THP1 cells, read-out: MIC
[3] = Cytotoxicity against human PANC1 cells after 5 days by MTT assay; type: cell-based, PANC-1; conditions: for IC50: Homo sapiens, PANC-1, 120 h; for MCC at 120 h: human, PANC1 cells, read-out: MIC
[4] = (§1) Cytotoxicity against human A549 cells after 3 days by MTT assay; type: cell-based; conditions: human, A549 cells; read-out: MIC
[5] = system: A549; experiment: as §1; type: cell-based; conditions: Homo sapiens, A549, 72 h
[6] = (§2) Cytotoxicity against human MCF7 cells after 4 days by MTT assay; type: cell-based; conditions: human, MCF7 cells; read-out: MIC
[7] = system: MCF7; experiment: as §2; type: cell-based; conditions: Homo sapiens, MCF7, 96 h
[8] = system: Mycobacterium tuberculosis; experiment: Antitubercular activity against dormant Mycobacterium tuberculosis H37Ra at 30 ug after 12 days by XTT-Menadione assay; type: functional
[9] = system: Mycobacterium tuberculosis; experiment: Antitubercular activity against dormant Mycobacterium tuberculosis H37Ra at 10 ug after 12 days by XTT-Menadione assay; type: functional
[10] = system: Mycobacterium tuberculosis; experiment: Antitubercular activity against dormant Mycobacterium tuberculosis H37Ra at 3 ug after 12 days by XTT-Menadione assay; type: functional
[11] = system: Mycolicibacterium smegmatis; experiment: Antitubercular activity against dormant Mycobacterium smegmatis MC2 155 at 30 ug after 12 days by XTT-Menadione assay; type: functional, str. MC2 155
[12] = system: Mycolicibacterium smegmatis; experiment: Antitubercular activity against dormant Mycobacterium smegmatis MC2 155 at 10 ug after 12 days by XTT-Menadione assay; type: functional, str. MC2 155
[13] = system: Mycolicibacterium smegmatis; experiment: Antitubercular activity against dormant Mycobacterium smegmatis MC2 155 at 3 ug after 12 days by XTT-Menadione assay; type: functional, str. MC2 155
[14] = system: Escherichia coli; experiment: Antibacterial activity against Escherichia coli at 30 ug after 8 hrs; type: functional
[15] = system: Escherichia coli; experiment: Antibacterial activity against Escherichia coli at 10 ug after 8 hrs; type: functional
[16] = system: Escherichia coli; experiment: Antibacterial activity against Escherichia coli at 3 ug after 8 hrs; type: functional
[17] = system: Pseudomonas fluorescens; experiment: Antibacterial activity against Pseudomonas fluorescens at 30 ug after 8 hrs; type: functional
[18] = system: Pseudomonas fluorescens; experiment: Antibacterial activity against Pseudomonas fluorescens at 10 ug after 8 hrs; type: functional
[19] = system: Pseudomonas fluorescens; experiment: Antibacterial activity against Pseudomonas fluorescens at 3 ug after 8 hrs; type: functional
[20] = system: Staphylococcus aureus; experiment: Antibacterial activity against Staphylococcus aureus at 30 ug after 12 hrs; type: functional
[21] = system: Staphylococcus aureus; experiment: Antibacterial activity against Staphylococcus aureus at 10 ug after 12 hrs; type: functional
[22] = system: Staphylococcus aureus; experiment: Antibacterial activity against Staphylococcus aureus at 3 ug after 12 hrs; type: functional
[23] = system: Bacillus subtilis; experiment: Antibacterial activity against Bacillus subtilis at 30 ug after 12 hrs; type: functional
[24] = system: Bacillus subtilis; experiment: Antibacterial activity against Bacillus subtilis at 10 ug after 12 hrs; type: functional
[25] = system: Bacillus subtilis; experiment: Antibacterial activity against Bacillus subtilis at 3 ug after 12 hrs; type: functional

What does the source list for `Nc1nccnc1C(=O)NN1C(=O)CSC1c1ccccc1` (stereo not given)?
IC50 [1]: 0.909 µg/mL (≈ 2.88 µM); MIC [1]: 28 µg/mL (≈ 88.9 µM); IC50 [2]: 89.6 µg/mL (≈ 284 µM); MCC at 120 h [2]: > 100 µg/mL; IC50 [3]: > 100 µg/mL; MCC at 120 h [3]: > 100 µg/mL; MCC at 72 h [4]: > 100 µg/mL; IC50 [5]: 77 µg/mL (≈ 244 µM); MCC at 96 h [6]: > 100 µg/mL; IC50 [7]: 81.3 µg/mL (≈ 258 µM); inhibition (INH) [8]: 91.57%; inhibition (INH) [9]: 71.09%; inhibition (INH) [10]: 70.02%; inhibition (INH) [11]: -60.9565%; inhibition (INH) [12]: 52.56%; inhibition (INH) [13]: 43.05%; inhibition (INH) [14]: 8.78%; inhibition (INH) [15]: -71.2%; inhibition (INH) [16]: -94.8%; inhibition (INH) [17]: 30.72%; inhibition (INH) [18]: 3.29%; inhibition (INH) [19]: 25.98%; inhibition (INH) [20]: -1.45%; inhibition (INH) [21]: 32.35%; inhibition (INH) [22]: -20.13%; inhibition (INH) [23]: 19.82%; inhibition (INH) [24]: -6.1%; inhibition (INH) [25]: -4.3%

Which IC50 [1] does the source give for `Cc1cnc(C(=O)NN2C(=O)CS[C@H]2c2ccc(N(C)C)cc2)cn1` here?
Its IC50 is 2.31 µg/mL (≈ 6.46 µM).

And the MIC [1]?
The MIC was 28.4 µg/mL (≈ 79.5 µM).

What about the IC50 [2] of the same compound?
The IC50 was greater than 100 µg/mL.

What about the MCC at 120 h [2] of the same compound?
Its MCC at 120 h is greater than 100 µg/mL.

What about the IC50 [3] of the same compound?
The IC50 was greater than 100 µg/mL.

What about the MCC at 120 h [3] of the same compound?
Its MCC at 120 h is greater than 100 µg/mL.

What about the MCC at 72 h [4] of the same compound?
Its MCC at 72 h is greater than 100 µg/mL.

What about the IC50 [5] of the same compound?
Its IC50 is greater than 100 µg/mL.

What about the MCC at 96 h [6] of the same compound?
The MCC at 96 h was greater than 100 µg/mL.

What about the IC50 [7] of the same compound?
Its IC50 is greater than 100 µg/mL.

And the “inhibition (INH)” value [8]?
Its value is 91.72%.

What about the “inhibition (INH)” value [9] of the same compound?
Its value is 65.91%.

What about the “inhibition (INH)” value [10] of the same compound?
The value was 60.23%.

What about the “inhibition (INH)” value [11] of the same compound?
The value was 23.39%.

And the “inhibition (INH)” value [12]?
Its value is 9.803%.

And the “inhibition (INH)” value [13]?
The value was -19.7482%.

What about the “inhibition (INH)” value [14] of the same compound?
Its value is 46.74%.

And the “inhibition (INH)” value [15]?
Its value is 28.08%.

And the “inhibition (INH)” value [16]?
Its value is 35.59%.

And the “inhibition (INH)” value [17]?
The value was 21.18%.

What about the “inhibition (INH)” value [18] of the same compound?
The value was 29.04%.

And the “inhibition (INH)” value [19]?
The value was 12.03%.

What about the “inhibition (INH)” value [20] of the same compound?
The value was 22.9%.

What about the “inhibition (INH)” value [21] of the same compound?
Its value is 27.85%.

And the “inhibition (INH)” value [22]?
Its value is 34.87%.

And the “inhibition (INH)” value [23]?
The value was 3.26%.

And the “inhibition (INH)” value [24]?
Its value is 2.71%.

And the “inhibition (INH)” value [25]?
The value was 5.9%.

Which results are given for `Cc1cnc(C(=O)NN2C(=O)CSC2c2ccc(Cl)cc2)cn1` (stereo not given)?
inhibition (INH) [8]: 62.27%; inhibition (INH) [9]: 61.88%; inhibition (INH) [10]: 60.85%; inhibition (INH) [11]: -19.6759%; inhibition (INH) [12]: 24.29%; inhibition (INH) [13]: -84.5144%; inhibition (INH) [14]: 40.4%; inhibition (INH) [15]: 64.64%; inhibition (INH) [16]: 63.05%; inhibition (INH) [17]: 32.81%; inhibition (INH) [18]: 21.51%; inhibition (INH) [19]: 27.78%; inhibition (INH) [20]: 16.66%; inhibition (INH) [21]: -10.67%; inhibition (INH) [22]: -0.64%; inhibition (INH) [23]: -36.6%; inhibition (INH) [24]: -5.89%; inhibition (INH) [25]: -0.29%

For `Nc1nccnc1C(=O)NN1C(=O)CSC1c1ccc(Cl)cc1Cl` (stereo not given), which “inhibition (INH)” value [8] is on record?
Its value is 63.39%.

What about the “inhibition (INH)” value [9] of the same compound?
Its value is 68.91%.

And the “inhibition (INH)” value [10]?
Its value is 64.5%.

And the “inhibition (INH)” value [11]?
The value was 33.52%.

And the “inhibition (INH)” value [12]?
The value was 55.96%.

What about the “inhibition (INH)” value [13] of the same compound?
The value was 42.73%.

What about the “inhibition (INH)” value [14] of the same compound?
Its value is -146.6%.

What about the “inhibition (INH)” value [15] of the same compound?
The value was 38.17%.

And the “inhibition (INH)” value [16]?
Its value is -35.51%.

And the “inhibition (INH)” value [17]?
The value was 7.35%.

What about the “inhibition (INH)” value [18] of the same compound?
Its value is -6.12%.

And the “inhibition (INH)” value [19]?
Its value is 14.82%.

What about the “inhibition (INH)” value [20] of the same compound?
Its value is -52.82%.

And the “inhibition (INH)” value [21]?
The value was -26.32%.

And the “inhibition (INH)” value [22]?
Its value is -35.91%.

And the “inhibition (INH)” value [23]?
The value was 3.8%.

What about the “inhibition (INH)” value [24] of the same compound?
The value was -11.3%.

And the “inhibition (INH)” value [25]?
Its value is -13.09%.

What does the source list for `Nc1nccnc1C(=O)NN1C(=O)CSC1c1cccc([N+](=O)[O-])c1` (stereo not given)?
inhibition (INH) [8]: 64.96%; inhibition (INH) [9]: 62.55%; inhibition (INH) [10]: 63.89%; inhibition (INH) [11]: 50.45%; inhibition (INH) [12]: -86.9278%; inhibition (INH) [13]: 36.91%; inhibition (INH) [14]: 34.42%; inhibition (INH) [15]: 5.212%; inhibition (INH) [16]: -91.9%; inhibition (INH) [17]: 47.95%; inhibition (INH) [18]: 25.83%; inhibition (INH) [19]: 4.173%; inhibition (INH) [20]: -37.97%; inhibition (INH) [21]: -44.93%; inhibition (INH) [22]: 5.486%; inhibition (INH) [23]: 17.93%; inhibition (INH) [24]: -12.6%; inhibition (INH) [25]: -23.1%
